According to ChEMBL document CHEMBL5321216, “Discovery of bipyridine amide derivatives targeting pRXRα-PLK1 interaction for anticancer therapy” (Eur J Med Chem, 2023):
Active and inactive are the calls of the source. The rule behind the calls is not given here.

How the values were obtained:
[1] = system: MDA-MB-231; assay: Inhibition of colony formation in human MDA-MB-231 cells at 62.5 nM incubated for 48 hrs followed by replacement with normal culture medium and measured after […] by crystal violet staining based assay relative to control; assay type: functional
[2] = system: A549; assay: Induction of apoptosis in human A549 cells assessed as early apoptotic cells at 250 nM incubated for 24 hrs by annexin V-FITC/PI staining based flow cytometry analysis (reference value: 0.78%); assay type: functional
[3] = system: MDA-MB-231; assay: Induction of apoptosis in human MDA-MB-231 cells assessed as early apoptotic cells at 62.5 nM incubated for 24 hrs by annexin V-FITC/PI staining based flow cytometry analysis (reference value: 2.03%); assay type: functional
[4] = Cytotoxicity against human MCF-10A cells assessed as inhibition of cell proliferation incubated for 72 hrs by MTT assay; assay type: toxicity, cell-based
[5] = system: MDA-MB-231; assay: Induction of cell cycle arrest in human MDA-MB-231 cells assessed as accumulation of cells at G2 phase at 62.5 nM incubated for 12 hrs by flow cytometry analysis (reference value: 15.91%); assay type: functional
[6] = target: T1, Retinoic acid receptor RXR-gamma (Homo sapiens) (UniProt P48443); assay: Antagonist activity at RXRgamma (unknown origin) transfected in human HeLa cells at 31.25 uM incubated for 24 hrs by dual luciferase reporter assay; assay type: cell-based
T1 sequence (whole entry): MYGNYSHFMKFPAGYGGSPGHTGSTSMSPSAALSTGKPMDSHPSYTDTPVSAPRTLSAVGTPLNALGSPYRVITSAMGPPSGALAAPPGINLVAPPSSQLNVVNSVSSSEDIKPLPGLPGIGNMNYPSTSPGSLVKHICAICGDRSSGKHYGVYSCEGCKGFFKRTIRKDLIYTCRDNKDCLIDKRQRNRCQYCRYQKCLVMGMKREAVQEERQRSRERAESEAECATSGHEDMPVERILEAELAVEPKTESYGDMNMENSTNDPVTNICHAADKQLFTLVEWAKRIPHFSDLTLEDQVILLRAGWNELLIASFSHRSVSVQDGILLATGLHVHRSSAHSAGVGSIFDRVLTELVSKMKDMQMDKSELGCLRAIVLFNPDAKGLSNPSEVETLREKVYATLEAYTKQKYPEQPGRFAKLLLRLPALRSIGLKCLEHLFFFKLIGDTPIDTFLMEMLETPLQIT

[7] = system: MDA-MB-231; assay: Antitumor activity against human MDA-MB-231 cells xenografted in BALB/c nude mouse assessed as inhibition of tumor growth by measuring DNA damaging response at 12.5 to 25 mg/kg/day, ip administered for 15 days; assay type: functional, organism-based; details: dose 12.5-25 mg/kg/day, time 15.0 day
[8] = system: MDA-MB-231; assay: Induction of apoptosis in human MDA-MB-231 cells assessed as increase in cleaved PARP expression at 125 nM by Western blot analysis; assay type: functional, cell-based; details: time 1-24 hrs, TDE = time-dependent effect
[9] = system: MDA-MB-231; assay: Induction of cell cycle arrest in human MDA-MB-231 cells assessed as accumulation of cells at G2 phase at 15.625 nM incubated for 12 hrs by flow cytometry analysis (reference value: 15.91%); assay type: functional; details: 0.01562 µM
[10] = system: A549; assay: Induction of cell cycle arrest in human A549 cells assessed as accumulation of cells at G1 phase at 15.625 nM incubated for 12 hrs by flow cytometry analysis (reference value: 59.57%); assay type: functional; details: 0.01562 µM
[11] = system: A549; assay: Antiproliferative activity against RXRalpha knockout human A549 cells assessed as inhibition of cell growth incubated for 72 hrs by MTT assay; assay type: functional, cell-based; details: A549, 72 h
[12] = system: A549; assay: Induction of apoptosis in human A549 cells assessed as dead cells at 125 nM incubated for 24 hrs by annexin V-FITC/PI staining based flow cytometry analysis (reference value: 0.75%); assay type: functional
[13] = target: T2, Retinoic acid receptor RXR-alpha (Homo sapiens) (UniProt P19793); assay: Antagonist activity at RXRalpha (unknown origin) transfected in human HeLa cells assessed as inhibition of CD3254- induced receptor transactivation incubated for 24 hrs by dual luciferase reporter assay; assay type: cell-based; details: filed as antagonist, dose 12.5-100 µM
T2 sequence (whole entry): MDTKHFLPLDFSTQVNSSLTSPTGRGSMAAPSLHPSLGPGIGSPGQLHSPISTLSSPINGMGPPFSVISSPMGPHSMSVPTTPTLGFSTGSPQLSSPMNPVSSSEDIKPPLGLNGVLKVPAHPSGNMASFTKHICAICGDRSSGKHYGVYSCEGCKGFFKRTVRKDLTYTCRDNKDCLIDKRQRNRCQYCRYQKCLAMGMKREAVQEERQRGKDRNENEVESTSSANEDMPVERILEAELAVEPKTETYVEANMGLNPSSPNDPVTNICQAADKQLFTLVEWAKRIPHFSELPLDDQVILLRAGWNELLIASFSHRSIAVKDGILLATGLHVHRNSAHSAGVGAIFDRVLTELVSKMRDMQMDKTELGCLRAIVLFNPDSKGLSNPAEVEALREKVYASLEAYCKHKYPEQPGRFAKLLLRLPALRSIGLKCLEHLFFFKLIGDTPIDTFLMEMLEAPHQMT

[14] = system: MDA-MB-231; assay: Induction of mitotic arrest in human MDA-MB-231 cells assessed as disordered spindle formation at 62.5 nM incubated for 12 hrs by alpha-tubulin/DAPI staining based confocal microscopic analysis; assay type: functional, cell-based
[15] = system: MDA-MB-231; assay: Induction of apoptosis in human MDA-MB-231 cells assessed as late apoptotic cells at 31.25 nM incubated for 24 hrs by annexin V-FITC/PI staining based flow cytometry analysis (reference value: 5.93%); assay type: functional
[16] = system: MCF7; assay: Antiproliferative activity against human MCF7 cells assessed as inhibition of cell proliferation incubated for 72 hrs by MTT assay; assay type: functional, cell-based; details: MCF7, 72 h
[17] = system: HepG2; assay: Antiproliferative activity against human HepG2 cells assessed as cell viability rate at 5 uM incubated for 72 hrs by MTT assay relative to control; assay type: functional
[18] = system: MDA-MB-231; assay: Induction of apoptosis in human MDA-MB-231 cells assessed as live cells at 31.25 nM incubated for 24 hrs by annexin V-FITC/PI staining based flow cytometry analysis (reference value: 91.3%); assay type: functional
[19] = system: A549; assay: Induction of cell cycle arrest in human A549 cells assessed as accumulation of cells at S phase at 125 nM incubated for 12 hrs by flow cytometry analysis (reference value: 31.81%); assay type: functional
[20] = system: MDA-MB-231; assay: Induction of cell cycle arrest in human MDA-MB-231 cells assessed as accumulation of cells at S phase at 125 nM incubated for 12 hrs by flow cytometry analysis (reference value: 40.89%); assay type: functional
[21] = system: A549; assay: Induction of apoptosis in human A549 cells assessed as late apoptotic cells at 125 nM incubated for 24 hrs by annexin V-FITC/PI staining based flow cytometry analysis (reference value: 5.28%); assay type: functional
[22] = system: NCI-H460; assay: Antiproliferative activity against human NCI-H460 cells assessed as inhibition of cell proliferation incubated for 72 hrs by MTT assay; assay type: functional, cell-based; details: NCI-H460, 72 h
[23] = system: A549; assay: Induction of apoptosis in human A549 cells assessed as live cells at 125 nM incubated for 24 hrs by annexin V-FITC/PI staining based flow cytometry analysis (reference value: 93.2%); assay type: functional

## O=C(/C=C/c1ccccc1)Nc1cc(-c2ccnc(N3CCC(CO)CC3)c2)ccn1
[1]
  inhibition at 0.0625 µM: 100%
[2]
  Activity: 31.3%
[3]
  Activity: 13.1%
[4]
  IC50 at 72 h: 18600 nM
[5]
  Activity: 81.68%
[6]
  Activity: inactive
[7]
  Activity: Active
[8]
  Activity: Tde
[9]
  Activity: 15.75%
[10]
  Activity: 59.06%
[11]
  IC50: 3360 nM
[12]
  Activity: 2.31%
[13]
  inhibition: Dose-Dependent Effect
[14]
  Activity: Active
[15]
  Activity: 14.7%
[16]
  IC50: 2340 nM
[17]
  Activity: 42.38%
[18]
  Activity: 82.2%
[19]
  Activity: 37.15%
[20]
  Activity: 14.05%
[21]
  Activity: 22.8%
[22]
  IC50: 253 nM
[23]
  Activity: 52%
